Common to all, as to assay type: cell-based
For one data set, the system named is erythrocytes. As to the kind of experiment: Hemolysis assay (Example 11). Details: % Hemolysis Mean: dose or concentration left out as unconfirmed. The method, then:
EDTA-blood was centrifuged at 800 g for 10 min, whereafter plasma and buffy coat were removed. The erythrocytes were washed three times and resuspended in 5% PBS, pH 7.4. The cells were then incubated with end-over-end rotation for 1 h at 37° C. in the presence of peptides ([…]). 2% Triton X-100 (Sigma-Aldrich) served as positive control. The samples were then centrifuged at 800 g for 10 min. The absorbance of hemoglobin release was measured at λ 540 nm and is in the plot expressed as % of TritonX-100 induced hemolysis.

For the next data set, the system named is Escherichia coli 37.4. As to the kind of experiment: Radial diffusion assay (RDA), E. coli 37.4. The settings on record: zone of inhibition; Table 2, second generation PEPscreen. The method, then: (§1) Escherichia coli 37.4 isolate was originally obtained from a patient with a chronic venous ulcer, while Staphylococcus aureus isolate BD14312 was from a patient with atopic dermatitis. Staphylococcus aureus ATCC29213 and Candida albicans ATCC90028 were both obtained from the Clinical Bacteriology Department at Lund University hospital.
(§2) Essentially as described earlier (Lehrer et al., J Immunol Methods 137, 167-173, 1991, Andersson et al., Eur J Biochem 271, 1219-1226, 2004) bacteria were grown to mid-logarithmic phase in 10 ml of full-strength (3% w/v) trypticase soy broth (TSB) (Becton-Dickinson, Cockeysville, Md.). The microorganisms were then washed once with 10 mM Tris, pH 7.4.4×10^6 bacterial colony forming units were added to 15 ml of the underlay agarose gel, consisting of 0.03% (w/v) TSB, 1% (w/v) low electroendosmosis type (EEO) agarose (Sigma, St Louis Mo.) and 0.02% (v/v) Tween 20 (Sigma). The underlay was poured into a ø 144 mm petri dish. After agarose solidification, 4 mm-diameter wells were punched and 6 μl of test sample was added to each well. Plates were incubated at 37° C. for 3 hours to allow diffusion of the peptides. The underlay gel was then covered with 15 ml of molten overlay (6% TSB and 1% Low-EEO agarose in dH2O). Antimicrobial activity of a peptide is visualized as a zone of clearing around each well after 18-24 hours of incubation at 37° C.

Data set [1] relates to Staphylococcus aureus ATCC29213. As to the kind of experiment: Radial diffusion assay (RDA), S. aureus ATCC29213. The following applies: zone of inhibition; Table 2, second generation PEPscreen. The method, then: as §1, §2

Where two headings read alike, the source gives them in different places. Where a SMILES comes first, the peptide text is derived from it. Where no end group is shown, it is not given here. [ ]: non-standard residue; d: D form.

46 compounds from patent US20080069849A1, “Novel Antimicrobial Peptides” (Dermagen AB, priority 2004, published 2008) can be followed below.

As for `CC[C@@H](C)[C@@H](NC(=O)[C@@H](Cc1ccc(O)cc1)NC(=O)[C@@H](CC(N)=O)NC(=O)[C@H](N)CS)C(=O)N[C@@H](C(=O)N[C@H](CCC(=O)O)C(=O)N[C@H](CC(C)C)C(=O)N[C@H](CCCNC(=N)N)C(=O)N[C@H](CCCNC(=N)N)C(=O)N[C@H](CCC(N)=O)C(=O)N[C@H](Cc1c[nH]cn1)C(=O)N[C@H](C)C(=O)N[C@H](CCCNC(=N)N)C(=O)N[C@H](C)C(=O)N[C@H](CO)C(=O)N[C@H](Cc1c[nH]cn1)C(=O)N[C@H](CC(C)C)C(=O)NCC(=O)N[C@H](CC(C)C)C(=O)N[C@H](C)C(=O)O)[C@H](C)O` [Peptide 182] (H-[dC][dN][dY][dI][dT][dE][dL][dR][dR][dQ][dH][dA][dR][dA][dS][dH][dL]G[dL][dA]-OH; N-terminus and C-terminus assumed), the “% Hemolysis Mean” value in the data set with erythrocytes (1 h) is listed as 2.659%.

For `CC[C@@H](C)[C@@H](NC(=O)[C@@H](Cc1ccc(O)cc1)NC(=O)[C@@H](CC(N)=O)NC(=O)[C@H](N)CS)C(=O)N[C@@H](C(=O)N[C@H](CCC(=O)O)C(=O)N[C@H](CC(C)C)C(=O)N[C@H](CC(C)C)C(=O)N[C@H](CCCNC(=N)N)C(=O)N[C@H](CCC(N)=O)C(=O)N[C@H](CC(C)C)C(=O)N[C@H](C)C(=O)N[C@H](CCCNC(=N)N)C(=O)N[C@H](C)C(=O)N[C@H](CO)C(=O)N[C@H](CCCCN)C(=O)N[C@H](CCCCN)C(=O)NCC(=O)N[C@H](CC(C)C)C(=O)N[C@H](C)C(=O)O)[C@H](C)O` [Peptide 183] (H-[dC][dN][dY][dI][dT][dE][dL][dL][dR][dQ][dL][dA][dR][dA][dS][dK][dK]G[dL][dA]-OH; N-terminus and C-terminus assumed), the “% Hemolysis Mean” value in the data set with erythrocytes (1 h) is 5.128%. For `CC[C@@H](C)[C@@H](NC(=O)[C@@H](Cc1ccc(O)cc1)NC(=O)[C@@H](CC(N)=O)NC(=O)[C@H](N)CS)C(=O)N[C@H](CCC(=O)O)C(=O)N[C@H](CCC(=O)O)C(=O)N[C@H](CC(C)C)C(=O)N[C@H](CCCNC(=N)N)C(=O)N[C@H](CCCNC(=N)N)C(=O)N[C@H](CCC(N)=O)C(=O)N[C@H](CC(C)C)C(=O)N[C@H](C)C(=O)N[C@H](CCCNC(=N)N)C(=O)N[C@H](C)C(=O)N[C@H](CC(C)C)C(=O)N[C@H](Cc1c[nH]cn1)C(=O)N[C@H](CCCCN)C(=O)NCC(=O)N[C@H](CC(C)C)C(=O)N[C@H](C)C(=O)O` [Peptide 184] (H-[dC][dN][dY][dI][dE][dE][dL][dR][dR][dQ][dL][dA][dR][dA][dL][dH][dK]G[dL][dA]-OH; N-terminus and C-terminus assumed), the “% Hemolysis Mean” value in the data set on erythrocytes (1 h) stood at 3.235%. Turning to “Ac-CNYIEELRRQLARALHKGLA-NH2 [Peptide 181]”, in the data set on Escherichia coli 37.4, the “RDA (mm) E. coli 37.4 Mean” value is 4.330 mm. In data set [1], the “RDA (mm) S. aureus ATCC29213 Mean” value came to 4.24 mm. For the same compound, in the data set on erythrocytes (1 h), the “% Hemolysis Mean” value stood at 4.861%. For “Ac-CNYITELLRQLARASKKGLA-NH2 [Peptide 180]”, in that order: 5.933 mm, 0 mm and 5.447%.

As for “Ac-CNYITELRRQHARASHLGLA-NH2 [Peptide 179]”, the “RDA (mm) E. coli 37.4 Mean” value in the data set with Escherichia coli 37.4 amounted to 2.677 mm. Also, the “RDA (mm) S. aureus ATCC29213 Mean” value in data set [1] is on record as 4.03 mm. For the same compound, in the data set on erythrocytes (1 h), the “% Hemolysis Mean” value is listed as 2.495%.

Take CKYITLLRRQLLRALKRGLR [Peptide 73]: in the data set on erythrocytes, the “hemolytic activity” value is reported as “low hemolytic activity”. Regarding CNYIEELKRQLARALHKGLA [Peptide 145], the “% Hemolysis Mean” value with erythrocytes (1 h) was determined as 2.495%. On the same count and under the same terms, the result for CNYIEELKRQLARALKKGLA [Peptide 146] reads 2.521%; that for CNYIEELLRQKARALHKGLA [Peptide 162], 2.056%; that for CNYIEELLRQKARALKKGLA [Peptide 164], 2.340%. Consider CNYIEELLRQLAPASHKGLA [Peptide 148], for which the “RDA (mm) E. coli 37.4 Mean” value with Escherichia coli 37.4 came to 2.900 mm. The “RDA (mm) S. aureus ATCC29213 Mean” value in data set [1] is listed as 0.99 mm. Further, in the data set with erythrocytes, the “% Hemolysis Mean” value is listed as 1.454%.

Consider CNYIEELLRQLARARHKGLA [Peptide 157], for which the “% Hemolysis Mean” value in the data set with erythrocytes (1 h) is listed as 1.282%. The same measure, in the same setting: the result for CNYIEELLRQLARARKKGLA [Peptide 159] reads 1.841%.

In the case of CNYIEELLRQLARASKKGLA [Peptide 149], the “% Hemolysis Mean” value in the data set with erythrocytes (1 h) is listed as 1.506%.

With CNYIEELLRQLARATHKGLA [Peptide 151], the “% Hemolysis Mean” value in the data set on erythrocytes (1 h) is reported as 1.626%.

CNYIEELLRQLARATKKGLA [Peptide 153]: the “% Hemolysis Mean” value in the data set with erythrocytes (1 h) turned out to be 1.755%. Consider CNYIEELLRQRARALHKGLA [Peptide 166], for which, in the data set on erythrocytes (1 h), the “% Hemolysis Mean” value was determined as 2.117%. Same read-out and setting: under CNYIEELLRQRARALKKGLA [Peptide 168] stands 2.573%. As to CNYIEELRRQLARALHKGLA [Peptide 47], the “hemolytic activity” value with erythrocytes is listed as “low hemolytic activity”. Moreover, in the data set on erythrocytes (1 h), the “% Hemolysis Mean” value was 2.323%. In the case of CNYIEELRRQLARALHKWLA [Peptide 173], the “% Hemolysis Mean” value in the data set on erythrocytes (1 h) is given as 8.148%. As for CNYIEELRRQLARALKKGLA [Peptide 142], the “% Hemolysis Mean” value in the data set on erythrocytes (1 h) was determined as 3.734%. Still for that read-out and setting: under CNYIEELRRQLARAWHKGLA [Peptide 174] stands 2.056%; under CNYIEELRRQWARALHKGLA [Peptide 175], 1.824%. On the same count and under the same terms, the result for CNYIEELWRQLARALHKGLA [Peptide 176] reads 2.771%; that for CNYIKELLRQKLRASHLGLA [Peptide 171], 2.383%; that for CNYITELKRQLARALHKGLA [Peptide 143], 3.450%. The same measure, in the same setting: the result for CNYITELKRQLARALKKGLA [Peptide 144] reads 3.597%.

As for CNYITELLRQKARALHKGLA [Peptide 161], the “% Hemolysis Mean” value with erythrocytes (1 h) amounted to 1.902%. Still for that read-out and setting: under CNYITELLRQKARALKKGLA [Peptide 163] stands 2.478%.

Turning to CNYITELLRQLARAKKKGLA [Peptide 160], the “% Hemolysis Mean” value in the data set on erythrocytes (1 h) came out at 2.512%. On the same count and under the same terms, the result for CNYITELLRQLARANKKGLA [Peptide 154] reads 2.564%. On the same count and under the same terms, the result for CNYITELLRQLARAQKKGLA [Peptide 155] reads 5.817%. As for CNYITELLRQLARARHKGLA [Peptide 156], the “% Hemolysis Mean” value with erythrocytes (1 h) is recorded as 3.321%. Still for that read-out and setting: the result for CNYITELLRQLARARKKGLA [Peptide 158] reads 3.829%. The same measure, in the same setting: under CNYITELLRQLARASHKGLA [Peptide 147] stands 2.555%.

For CNYITELLRQLARASKKGLA [Peptide 39], the “hemolytic activity” value with erythrocytes is “low hemolytic activity”. Regarding CNYITELLRQLARATHKGLA [Peptide 150], the “% Hemolysis Mean” value in the data set on erythrocytes (1 h) is recorded as 3.777%. The same measure, in the same setting: under CNYITELLRQLARATKKGLA [Peptide 152] stands 3.984%; under CNYITELLRQRARALHKGLA [Peptide 165], 2.659%. Same read-out and setting: under CNYITELLRQRARALKKGLA [Peptide 167] stands 2.642%; under CNYITELRRQKLRLLHKGLA [Peptide 170], 2.211%.

With CNYITELRRQKLRLLKKGLA [Peptide 169], the “% Hemolysis Mean” value in the data set on erythrocytes (1 h) is on record as 2.512%. Still for that read-out and setting: under CNYITELRRQLARALHKGLA [Peptide 140] stands 5.145%; under CNYITELRRQLARALKKGLA [Peptide 141], 17.716%. For the compound CNYIWELRRQLARALHKGLA [Peptide 177], the “% Hemolysis Mean” value in the data set on erythrocytes (1 h) came to 3.175%.
